Reference: US5496844A, “Indole derivatives” (Otsuka Pharmaceutical Factory, Inc., priority 1992, dated 1996)

Target: T1, rat uterus cytoplasm estrogen receptor (Rattus norvegicus, UniProt P06211)
T1 construct: the homogenate was centrifuged to give a cytoplasm fraction; from tissue; host or cells: uterus of female SD rats aged 3 to 4 weeks, cytoplasm fraction
T1 sequence (P06211 1-600): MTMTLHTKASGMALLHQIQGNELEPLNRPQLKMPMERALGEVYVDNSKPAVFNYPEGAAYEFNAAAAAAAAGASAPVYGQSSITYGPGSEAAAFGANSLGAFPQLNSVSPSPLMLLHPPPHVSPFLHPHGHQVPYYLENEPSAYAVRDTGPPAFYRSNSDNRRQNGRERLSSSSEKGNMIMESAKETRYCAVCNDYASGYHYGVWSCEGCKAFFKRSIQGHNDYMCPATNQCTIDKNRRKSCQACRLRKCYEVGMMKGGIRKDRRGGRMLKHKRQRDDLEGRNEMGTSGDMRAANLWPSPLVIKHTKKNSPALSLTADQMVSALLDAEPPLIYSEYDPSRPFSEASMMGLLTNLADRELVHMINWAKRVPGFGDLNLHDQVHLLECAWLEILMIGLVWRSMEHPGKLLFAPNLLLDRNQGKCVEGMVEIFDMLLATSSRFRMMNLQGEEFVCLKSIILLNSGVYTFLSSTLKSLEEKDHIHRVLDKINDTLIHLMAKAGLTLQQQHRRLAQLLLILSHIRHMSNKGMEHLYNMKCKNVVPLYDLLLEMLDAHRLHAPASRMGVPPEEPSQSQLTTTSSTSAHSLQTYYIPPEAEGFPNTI
Assay: inhibition of specific binding of [3H]-moxestrol to rat uterus cytoplasm estrogen receptor
Parameters: species or system rat (female SD)
Settings: relative to moxestrol as control compound; rat uterus cytoplasm fraction; 4° C., 16 hours; DCC method
Experimental: Test for inhibitory activity against the specific binding of [^3 H]-moxestrol to the rat uterus cytoplasm estrogen receptor
The above activity was measured essentially as described in the literature [J. Biol. Chem., 258 (5), 3173 (1973) and Biochem. Pharmacol., 43 (12), 2511 (1992)].
Thus, the uterus was excised from female SD rats aged 3 to 4 weeks and homogenized in 6 volumes of TETG buffer (10 mM Tris-hydrochloride, 1 mM EDTA, 12 mM thioglycerol and 10% glycerol) and the homogenate was centrifuged to give a cytoplasm fraction. ^3 H-Moxestrol and each test compound were added to this cytoplasm fraction and each mixture was incubated at 4° C. for 16 hours to allow binding to the estrogen receptor in the cytoplasm fraction.
Then, the free form of ^3 H-moxestrol was removed by the DCC method and the bound form of ^3 H-moxestrol was quantitated using a liquid scintillation counter.
Moxestrol was used as a control compound and the relative binding affinity (RBA), which was defined as the ^3 H-moxestrol binding inhibiting effect (IC50) ratio, was determined as follows: [formula]
The thus-obtained RBA values for the respective test compounds are shown below in Table 21.

SMILES: Cc1c(-c2ccc(Sc3ccccc3)cc2)n(CCCCCCNC(C)C)c2ccc(O)cc12 [Example 161]
- RBA (relative binding affinity, 3H-moxestrol binding inhibiting effect (IC50) ratio): 46%

SMILES: CSc1ccc(-c2c(C)c3cc(O)ccc3n2CCCCCCNC2CCCC2)cc1 [Example 172]
- RBA (relative binding affinity, 3H-moxestrol binding inhibiting effect (IC50) ratio): 44%

SMILES: CSc1ccc(-c2c(C)c3cc(O)ccc3n2CCCCCCNC2CCC2)cc1 [Example 175, 1-(6-cyclobutylaminohexyl)-5-hydroxy-3-methyl-2-(4-methylthiophenyl)indole]
- RBA (relative binding affinity, 3H-moxestrol binding inhibiting effect (IC50) ratio): 60%

SMILES: CSc1ccc(-c2c(C)c3cc(O)ccc3n2CCCCCCNC2CC2)cc1 [Example 176]
- RBA (relative binding affinity, 3H-moxestrol binding inhibiting effect (IC50) ratio): 64%

SMILES: CSc1ccc(-c2c(C)c3cc(O)ccc3n2CCCCCCNC(C)(C)C)cc1 [Example 178]
- RBA (relative binding affinity, 3H-moxestrol binding inhibiting effect (IC50) ratio): 57%

SMILES: CCC(C)NCCCCCCn1c(-c2ccc(SC)cc2)c(C)c2cc(O)ccc21 (stereo not drawn) [Example 179]
- RBA (relative binding affinity, 3H-moxestrol binding inhibiting effect (IC50) ratio): 60%

SMILES: CSc1ccc(-c2c(C)c3cc(O)ccc3n2CCCCCCNCc2ccccc2)cc1 [Example 181]
- RBA (relative binding affinity, 3H-moxestrol binding inhibiting effect (IC50) ratio): 52%

SMILES: CCC(C)(C)NCCCCCCn1c(-c2ccc(SC)cc2)c(C)c2cc(O)ccc21 [Example 182]
- RBA (relative binding affinity, 3H-moxestrol binding inhibiting effect (IC50) ratio): 57%

SMILES: O=C(c1ccc(OCCN2CCCC2)cc1)n1c(-c2ccc(Sc3ccccc3)cc2)cc2cc(O)ccc21 [Example 234, 5-hydroxy-2-(4-phenylthiophenyl)-1-[4-{2-(1-pyrrolidinyl)ethoxy}benzoyl]indole]
- RBA (relative binding affinity, 3H-moxestrol binding inhibiting effect (IC50) ratio): 50%

SMILES: O=C(c1ccc(OCCN2CCCCC2)cc1)n1c(-c2ccc(Sc3ccccc3)cc2)cc2cc(O)ccc21 [Example 236]
- RBA (relative binding affinity, 3H-moxestrol binding inhibiting effect (IC50) ratio): 53%

SMILES: O=C(c1ccc(OCCCN2CCCC2)cc1)n1c(-c2ccc(Sc3ccccc3)cc2)cc2cc(O)ccc21 [Example 238]
- RBA (relative binding affinity, 3H-moxestrol binding inhibiting effect (IC50) ratio): 49%

SMILES: O=C(c1ccc(OCCCN2CCCCC2)cc1)n1c(-c2ccc(Sc3ccccc3)cc2)cc2cc(O)ccc21 [Example 239]
- RBA (relative binding affinity, 3H-moxestrol binding inhibiting effect (IC50) ratio): 73%

SMILES: O=C(c1ccc(OCCn2cncn2)cc1)n1c(-c2ccc(Sc3ccccc3)cc2)cc2cc(O)ccc21 [Example 246]
- RBA (relative binding affinity, 3H-moxestrol binding inhibiting effect (IC50) ratio): 57%

SMILES: CSc1ccc(-c2c(C)c3cc(O)ccc3n2CCCCCCCC(=O)N(C)C)cc1 [Example 253]
- RBA (relative binding affinity, 3H-moxestrol binding inhibiting effect (IC50) ratio): 94%

SMILES: CSc1ccc(-c2c(C)c3cc(O)ccc3n2CCCCCCCC(=O)NC2CCC2)cc1 [Example 254]
- RBA (relative binding affinity, 3H-moxestrol binding inhibiting effect (IC50) ratio): 78%

SMILES: CSc1ccc(-c2c(C)c3cc(O)ccc3n2CCCCCCCC(=O)NC(C)(C)C)cc1 [Example 255]
- RBA (relative binding affinity, 3H-moxestrol binding inhibiting effect (IC50) ratio): 41%

SMILES: CSc1ccc(-c2c(C)c3cc(O)ccc3n2CCCCCCCC(=O)N2CCCCC2)cc1 [Example 258]
- RBA (relative binding affinity, 3H-moxestrol binding inhibiting effect (IC50) ratio): 41%

SMILES: CSc1ccc(-c2c(C)c3cc(O)ccc3n2CCCCCCCCN2CCOCC2)cc1 [Example 272]
- RBA (relative binding affinity, 3H-moxestrol binding inhibiting effect (IC50) ratio): 48%

SMILES: CSc1ccc(-c2c(C)c3cc(O)ccc3n2CCCCCCCCNC(C)C)cc1 [Example 274]
- RBA (relative binding affinity, 3H-moxestrol binding inhibiting effect (IC50) ratio): 65%

SMILES: CSc1ccc(-c2c(C)c3cc(O)ccc3n2CCCCCCCCN(C)C)cc1 [Example 279]
- RBA (relative binding affinity, 3H-moxestrol binding inhibiting effect (IC50) ratio): 82%

SMILES: CSc1ccc(-c2c(C)c3cc(O)ccc3n2CCCCCCCCNC2CCC2)cc1 [Example 280]
- RBA (relative binding affinity, 3H-moxestrol binding inhibiting effect (IC50) ratio): 116%

SMILES: CSc1ccc(-c2c(C)c3cc(O)ccc3n2CCCCCCCCN2CCCC2)cc1 [Example 281, 5-hydroxy-3-methyl-2-(4-methylthiophenyl)-1-[8-(1-pyrrolidinyl)octyl]indole]
- RBA (relative binding affinity, 3H-moxestrol binding inhibiting effect (IC50) ratio): 121%

SMILES: CSc1ccc(-c2c(C)c3cc(O)ccc3n2CCCCCCCCNC(C)(C)C)cc1 [Example 282]
- RBA (relative binding affinity, 3H-moxestrol binding inhibiting effect (IC50) ratio): 114%

SMILES: CSc1ccc(-c2c(C)c3cc(O)ccc3n2CCCCCCCCN2CCCCC2)cc1 [Example 285]
- RBA (relative binding affinity, 3H-moxestrol binding inhibiting effect (IC50) ratio): 93%

SMILES: CCSc1ccc(-c2cc3cc(O)ccc3n2CCCCCCCCNC(C)C)cc1 [Example 286]
- RBA (relative binding affinity, 3H-moxestrol binding inhibiting effect (IC50) ratio): 51%

SMILES: CSc1ccc(-c2c(C)c3cc(O)ccc3n2CCCCCCN2CCSC2)cc1 [Example 291]
- RBA (relative binding affinity, 3H-moxestrol binding inhibiting effect (IC50) ratio): 70%

SMILES: CSc1ccc(-c2c(C)c3cc(O)ccc3n2CCCCCCNC(C)c2ccccc2)cc1 (stereo not drawn) [Example 312, 5-hydroxy-3-methyl-2-(4-methylthiophenyl)-1-[6-(1-phenylethyl)aminohexyl]indole]
- RBA (relative binding affinity, 3H-moxestrol binding inhibiting effect (IC50) ratio): 42%
